Structures are written as SMILES. Where two headings read alike, the source gives them in different places.

One assay concerns Hs 729. Description: OncoPanel cell proliferation assay (10-day). The conditions noted are these: for EC50 / GI50 / IC50: Homo sapiens, Hs 729, Soft Tissue - Sarcoma; for EC50: read-out: Cell Count EC50; for GI50: read-out: Cell Count GI50; for IC50: read-out: Cell Count IC50. Format: cell-based, human.
Assay [1] has as its target T1, Phenylethanolamine N-methyltransferase (h) (Homo sapiens, UniProt P11086).
T1 sequence (P11086 1-282): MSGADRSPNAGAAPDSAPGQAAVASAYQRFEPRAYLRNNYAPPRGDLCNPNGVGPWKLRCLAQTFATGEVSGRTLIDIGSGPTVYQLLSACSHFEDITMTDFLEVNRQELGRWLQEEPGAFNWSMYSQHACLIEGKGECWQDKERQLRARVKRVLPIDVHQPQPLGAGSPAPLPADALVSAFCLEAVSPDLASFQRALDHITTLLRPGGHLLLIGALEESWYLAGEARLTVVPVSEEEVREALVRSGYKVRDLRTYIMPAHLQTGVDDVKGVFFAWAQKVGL
The assay is described as follows: Epigenetic enzyme assay, Small molecule methyltransferases. The conditions noted are these: read-out: % Inhibition of Control Values. Format: biochemical.

A further assay has as its target PRDM9 (h) (Homo sapiens, UniProt Q9NQV7). The assay is described as follows: Epigenetic enzyme assay, Methyltransferases (MTs). Format: biochemical. To be noted: for inhibition at 10 µM: read-out: % Inhibition of Control Values.
The target of assay [2] is T2, Haspin (h) (substrate histone H3 full length) (Homo sapiens, UniProt Q8TF76).
T2 sequence (Q8TF76 1-798): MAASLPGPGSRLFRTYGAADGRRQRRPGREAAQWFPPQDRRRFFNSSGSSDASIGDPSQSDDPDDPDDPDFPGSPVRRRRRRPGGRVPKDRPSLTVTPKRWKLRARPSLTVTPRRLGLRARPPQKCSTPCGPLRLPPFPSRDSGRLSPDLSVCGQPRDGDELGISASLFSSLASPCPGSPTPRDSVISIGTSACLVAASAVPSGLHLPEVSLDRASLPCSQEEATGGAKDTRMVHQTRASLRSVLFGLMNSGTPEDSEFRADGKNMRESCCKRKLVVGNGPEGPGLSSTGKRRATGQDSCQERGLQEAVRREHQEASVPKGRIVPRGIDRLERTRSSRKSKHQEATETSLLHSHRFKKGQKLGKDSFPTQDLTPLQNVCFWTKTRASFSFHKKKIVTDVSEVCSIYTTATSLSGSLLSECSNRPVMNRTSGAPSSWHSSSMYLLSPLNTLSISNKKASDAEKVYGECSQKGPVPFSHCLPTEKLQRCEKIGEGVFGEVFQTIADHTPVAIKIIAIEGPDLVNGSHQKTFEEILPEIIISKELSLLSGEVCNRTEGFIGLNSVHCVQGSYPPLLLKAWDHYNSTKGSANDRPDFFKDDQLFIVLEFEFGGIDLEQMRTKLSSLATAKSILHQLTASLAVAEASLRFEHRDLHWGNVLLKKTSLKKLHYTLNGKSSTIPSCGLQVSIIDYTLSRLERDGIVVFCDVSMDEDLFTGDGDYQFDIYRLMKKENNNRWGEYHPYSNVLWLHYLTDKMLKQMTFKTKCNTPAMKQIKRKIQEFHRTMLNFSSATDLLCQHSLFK
Description: Epigenetic enzyme assay, Kinases. To be noted: read-out: % Inhibition of Control Values. Format: biochemical.

Another assay addresses T3, L3MBTL3 (h) MBT domain (Homo sapiens, UniProt Q96JM7).
T3 construct: Tudor, MBT and chromo domains gauge the degree of lysine methylation; Eurofins CEREP (France), contract laboratory
T3 sequence (Q96JM7 225-555 limits assumed): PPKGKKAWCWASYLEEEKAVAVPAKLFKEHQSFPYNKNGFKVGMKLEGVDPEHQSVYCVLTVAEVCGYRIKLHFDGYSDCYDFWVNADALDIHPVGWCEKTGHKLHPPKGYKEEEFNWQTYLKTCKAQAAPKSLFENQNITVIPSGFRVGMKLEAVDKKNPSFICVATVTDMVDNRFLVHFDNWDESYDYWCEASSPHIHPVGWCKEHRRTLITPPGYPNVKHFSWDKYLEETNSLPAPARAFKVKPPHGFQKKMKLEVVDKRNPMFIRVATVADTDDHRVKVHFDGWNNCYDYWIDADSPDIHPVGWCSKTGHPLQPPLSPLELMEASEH
The assay is described as follows: Epigenetic binding assay, MBT domain. To be noted: read-out: % Inhibition of Control Specific Binding.

The target of the next assay is T4, ATAD2B (h) bromodomain (Homo sapiens, UniProt Q9ULI0).
T4 construct: ATAD2B bromodomain; host or cells: E. coli
T4 sequence (Q9ULI0 951-1066 limits assumed): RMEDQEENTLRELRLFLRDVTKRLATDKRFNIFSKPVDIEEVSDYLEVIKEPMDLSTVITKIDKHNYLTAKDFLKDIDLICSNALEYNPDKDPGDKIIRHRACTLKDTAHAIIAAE
The assay is described as follows: Epigenetic binding assay, Bromodomain. The conditions noted are these: 10 μM; read-out: % Inhibition of Control Specific Binding.

The next assay deals with T5, CBX6 (h) chromodomain (Homo sapiens, UniProt O95503).
T5 construct: Recognition and specificity determinants of the human cbx chromodomains; Eurofins CEREP (France), contract laboratory
T5 sequence (O95503 11-69 limits assumed): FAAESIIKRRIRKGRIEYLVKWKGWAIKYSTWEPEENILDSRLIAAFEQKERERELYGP
Description: Epigenetic binding assay, Chromodomain. To be noted: read-out: % Inhibition of Control Specific Binding.

Assay [3] concerns the target T6, sirtuin 2 (h) (inhibitor effect) (Homo sapiens, UniProt Q8IXJ6).
T6 sequence (Q8IXJ6 1-389): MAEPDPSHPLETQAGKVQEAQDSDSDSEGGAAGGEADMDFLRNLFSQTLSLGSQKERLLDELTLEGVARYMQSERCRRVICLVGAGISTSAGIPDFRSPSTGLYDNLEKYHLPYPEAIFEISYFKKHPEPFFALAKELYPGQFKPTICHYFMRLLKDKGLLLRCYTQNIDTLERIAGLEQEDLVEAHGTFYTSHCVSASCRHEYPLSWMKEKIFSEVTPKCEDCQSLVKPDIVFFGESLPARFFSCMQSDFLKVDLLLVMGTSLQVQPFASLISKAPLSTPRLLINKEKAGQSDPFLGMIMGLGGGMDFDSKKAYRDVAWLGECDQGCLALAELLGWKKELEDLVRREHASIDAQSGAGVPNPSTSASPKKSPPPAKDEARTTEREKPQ
Description: Epigenetic enzyme assay, Sirtuins. Format: biochemical. To be noted: 10 μM; read-out: % Inhibition of Control Values.

Another assay has as its system J-RT3-T3-5 leukemia. The assay is described as follows: OncoPanel cell proliferation assay (10-day). It counts as cell-based, human. The conditions noted are these: for GI50 / EC50 / IC50: Homo sapiens; for EC50: read-out: Cell Count EC50; for IC50: read-out: Cell Count IC50.
The subject of another assay is MLL4(h) complex. The assay is described as follows: Epigenetic enzyme assay, Methyltransferases (MTs). Format: biochemical, human. To be noted: for % Inhibition of Control Values: 10 μM.
The mark [4] stands for this setting: J-RT3-T3-5, Leukemia, read-out: Cell Count GI50.

PRDM9 (h), sequence (Q9NQV7 whole entry): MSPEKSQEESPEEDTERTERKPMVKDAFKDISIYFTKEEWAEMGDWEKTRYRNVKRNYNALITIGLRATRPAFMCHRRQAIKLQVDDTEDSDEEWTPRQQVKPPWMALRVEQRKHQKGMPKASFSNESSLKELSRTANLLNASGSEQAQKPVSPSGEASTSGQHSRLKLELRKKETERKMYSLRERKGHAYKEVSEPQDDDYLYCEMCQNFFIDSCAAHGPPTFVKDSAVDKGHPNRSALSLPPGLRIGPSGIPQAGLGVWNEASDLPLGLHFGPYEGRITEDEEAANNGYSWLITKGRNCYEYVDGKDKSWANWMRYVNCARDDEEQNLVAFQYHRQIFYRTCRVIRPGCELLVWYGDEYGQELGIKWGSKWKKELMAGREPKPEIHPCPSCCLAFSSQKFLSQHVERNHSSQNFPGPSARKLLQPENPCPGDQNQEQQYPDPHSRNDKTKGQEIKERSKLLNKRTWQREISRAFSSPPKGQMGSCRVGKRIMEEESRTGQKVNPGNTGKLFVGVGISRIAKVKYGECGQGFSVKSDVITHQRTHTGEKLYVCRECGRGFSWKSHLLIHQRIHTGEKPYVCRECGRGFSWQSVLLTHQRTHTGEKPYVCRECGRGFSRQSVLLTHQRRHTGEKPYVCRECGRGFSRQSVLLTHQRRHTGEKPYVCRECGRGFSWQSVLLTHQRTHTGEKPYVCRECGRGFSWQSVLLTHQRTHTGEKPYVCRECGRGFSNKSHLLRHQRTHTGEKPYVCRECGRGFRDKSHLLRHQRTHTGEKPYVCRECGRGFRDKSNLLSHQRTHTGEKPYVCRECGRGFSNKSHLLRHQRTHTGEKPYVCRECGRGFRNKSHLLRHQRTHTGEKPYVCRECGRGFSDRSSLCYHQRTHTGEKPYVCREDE

The term EC50 denotes the concentration at which the effect is half-maximal. As usually defined, the GI50 is the concentration giving 50% growth inhibition. As a reminder, the IC50 is the concentration that gives 50% inhibition. As a reminder, the inhibition is the drop in the measured response relative to a control, in per cent. With `CC(C)=CCC[C@H](CO)[C@@H]1CC[C@@H](C)c2c1cc(C)c(O)c2O` [Compound 1, 7,8,18-trihydroxyserrulat-14-ene], the 50% effective concentration (EC50) in the assay with Hs 729 was determined as 2770 nM; with J-RT3-T3-5 leukemia (J-RT3-T3-5, Leukemia), 10 nM. The 50% growth inhibitory concentration (GI50) in the assay with Hs 729 stood at 2670 nM; with J-RT3-T3-5 leukemia (J-RT3-T3-5, read-out: GI50), 10.1 nM; in the assay on J-RT3-T3-5 leukemia (setting [4]) it was 10 nM. For the same compound, the half-inhibitory concentration (IC50) with Hs 729 was found to be 2780 nM; in the assay with J-RT3-T3-5 leukemia (J-RT3-T3-5, Leukemia), 10 nM. The “Relative cell count (%) Mean” value worked out at 46.0% in the assay on Hs 729 (Hs 729, 3.00E+00 microM); 1.0% with Hs 729 (Hs 729, 3.00E+01 microM); 99.4% with Hs 729 (Hs 729, 3.01E−01 microM); 107.0% with Hs 729 (Hs 729, 3.01E−02 microM); 103.0% in the assay with Hs 729 (Hs 729, 3.02E−03 microM); 3.2% in the assay on Hs 729 (Hs 729, 9.49E+00 microM). Further, the “Relative cell count (%) Mean” value amounted to 98.9% in the assay on Hs 729 (Hs 729, 9.51E−01 microM); 99.9% in the assay with Hs 729 (Hs 729, 9.52E−02 microM); 108.7% in the assay with Hs 729 (Hs 729, 9.53E−03 microM); 100.6% in the assay on Hs 729 (Hs 729, 9.55E−04 microM). For the same compound, the inhibition at 10 µM in [1] is 23%; on PRDM9 (h), 9%; in assay [2], 2%; on L3MBTL3 (h) MBT domain it was 22%; at ATAD2B (h) bromodomain, 52%; on CBX6 (h) chromodomain it was -1%. Moreover, in assay [3], the inhibition at 10 µM is -4%. Besides, the “% Inhibition of Control Values” in the assay on MLL4(h) complex is given as −16%.
Consider `CC(C)=CCC[C@H](C)[C@@H]1CC[C@@H](C)c2c1cc(C)c(O)c2O` [Compound 4, 7,8-dihydroxyserrulat-14-ene], for which the EC50 in the assay on Hs 729 was 11900 nM; in the assay on J-RT3-T3-5 leukemia (J-RT3-T3-5, Leukemia), 2710 nM. Further, the GI50 in the assay on Hs 729 came to 11600 nM; with J-RT3-T3-5 leukemia (J-RT3-T3-5, read-out: GI50), 2710 nM; in the assay with J-RT3-T3-5 leukemia (setting [4]), 2710 nM. Besides, the concentration for half-maximal inhibition (IC50) with Hs 729 came to 11900 nM; in the assay with J-RT3-T3-5 leukemia (J-RT3-T3-5, Leukemia), 2710 nM. Further, in the assay on J-RT3-T3-5 leukemia (ratio of GI50 values), the “times less activity than Compound 1” value is given as “approximately 270 times”.
With `CC(C)=CCC[C@@H]1COc2c(C)cc(O)c3c2[C@H]1CC[C@H]3C` [Compound 3, 5,18-epoxy-8-hydroxyserrulat-14-ene], the inhibition at 10 µM in [1] came to 5%; at PRDM9 (h), 4%; in [2], 7%; on L3MBTL3 (h) MBT domain, 33%; at ATAD2B (h) bromodomain, 28%; at CBX6 (h) chromodomain, 58%. For the same compound, the inhibition at 10 µM in [3] is -19%. In addition, the “% Inhibition of Control Values” with MLL4(h) complex was −4%.
For `CC(C)=CCC[C@@H]1C(O)Oc2c(C)cc(O)c3c2[C@H]1CC[C@H]3C` (stereo partly drawn) [Compound 2, 5,18-epoxyserrulat-14-en-8,18-diol], the EC50 is 23300 nM with Hs 729 and 2080 nM in the assay on J-RT3-T3-5 leukemia (J-RT3-T3-5, Leukemia). The GI50 in the assay with Hs 729 came out at 21800 nM; in the assay with J-RT3-T3-5 leukemia (setting [4]) it was 2060 nM. Also, the IC50 is 23300 nM in the assay with Hs 729 and 2080 nM with J-RT3-T3-5 leukemia (J-RT3-T3-5, Leukemia). Moreover, the inhibition at 10 µM in assay [1] turned out to be 9%; on PRDM9 (h) it was 5%; in assay [2] it was 11%; at L3MBTL3 (h) MBT domain it was 29%; at ATAD2B (h) bromodomain it was 25%; on CBX6 (h) chromodomain, 27%. Further, the inhibition at 10 µM in [3] was 6%. In addition, in the assay with MLL4(h) complex, the “% Inhibition of Control Values” was −18%.
For the compound `Nc1ncnc2c1ncn2[C@@H]1O[C@H](CSCC[C@H](N)C(=O)O)[C@@H](O)[C@H]1O` [SAH], the IC50 is 370000 nM on PRDM9 (h) (read-out: Reference IC50) and 550 nM on MLL4(h) complex (read-out: Reference IC50).

Source of the values: patent US11331299B2, “Medicinal use of serrulatane diterpenes” (The University of Sydney, priority 2016, dated 2022).
